In patent US7241732B2, “Compositions and methods involved in bone growth” (University of Rochester, priority 2001, dated 2007):

Tests used:
[1] = target: T1, type V tartrate resistant acid phosphatase (TRAP) (Sus scrofa, UniProt P09889); assay: Phage display bio-panning of random 12 amino acid M13 library with immobilized TRAP; assay type: binding; details: 44 phage clones sequenced after three rounds of bio-panning with TRAP
T1 construct: One was from a purified protein extraction; from tissue; host or cells: gift of Dr. R. M. Roberts (University of Missouri)
T1 sequence (P09889 22-340): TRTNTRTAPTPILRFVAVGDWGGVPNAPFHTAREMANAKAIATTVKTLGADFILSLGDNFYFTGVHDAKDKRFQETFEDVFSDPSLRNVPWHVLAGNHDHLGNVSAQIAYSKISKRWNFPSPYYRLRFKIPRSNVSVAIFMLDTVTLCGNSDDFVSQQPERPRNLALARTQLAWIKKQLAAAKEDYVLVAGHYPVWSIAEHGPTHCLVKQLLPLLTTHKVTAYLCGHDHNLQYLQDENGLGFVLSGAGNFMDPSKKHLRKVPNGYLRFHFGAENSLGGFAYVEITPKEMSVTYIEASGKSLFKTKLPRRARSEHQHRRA
Text: In phage display either random peptide libraries or cell specific cDNA libraries can be used. Both have been used to target the interactions that take place in bone resporbtion and formation. Generally, the peptides or proteins are expressed on the surface coat of M13 or T7 phage and then these phage are used in a biopanning technique to identify which phage have affinity for a particular substrate (the “bait”). The adherent phage are eluted, amplified and used in another round of panning. After at least three rounds, phage clones are sequenced.
The TRAP used in these experiments was purified to homogeneity and was generously provided by Dr. M. Roberts.
After three rounds of bio-panning, elution and amplification 44 phage clones were selected at random and sequenced. Nine different sequences were identified. They are listed in Table 4 along with their consensus frequency. The most frequent phage sequenced was represented 15 times and the least frequent only a single time.

[2] = tested on: osteoblast binding to osteoclast lacunae; assay: Competition cell binding assay, osteoblasts on pitted bone wafers; assay type: cell-based, rat
Experimental: The 12 amino acid oligopeptide corresponding to the sequence from Clone 5 can inhibit osteoblast binding to osteoclast lacunae. […] (For these experiments, approximately 20% of the area of the wafers was pitted.) A concentration of 50 nM for the oligopeptide blocked osteoblast binding by approximately 66%. A statistically significant inhibition for binding occurred down to a concentration of 10 pM of the oligopeptide.
The 12 amino acid oligopeptide corresponding to the sequence from Clone 5 can inhibit osteoblast binding to osteoclast lacunae. […] For these experiments, approximately 20% of the area of the wafers was pitted. A concentration of 50 nM for the oligopeptide blocked osteoblast binding by approximately 66%. A statistically significant inhibition for binding occurred down to a concentration of 10 pM of the oligopeptide.
To measure the effect of selected phage peptides on osteoblast binding in osteoclast lacunae we performed a cell binding assay in the presence of increasing concentrations of the phage peptide. Osteoblasts were prelabeled with L-[4,5-^3H]Leucine (250 μCi TRK636-250 μCi, Amersham ) for 24 hrs. The osteoblasts were then added to pitted bone wafers in the presence of increasing concentrations of a synthetic 12 amino acid peptide that was identical to the phage sequence. After a two hour incubation at 37° C. the wafers were washed and the amount of radiolabel associated on each wafer determined by scintillation spectrometry. The specific activity of the cells (i.e. cpm/cell) was used to determine the number of cells adhering to the wafers.

[3] = tested on: osteoblast gene products; assay: Osteoblast gene expression profile assay (real-time PCR); assay type: cell-based
Experimental: Both GPC4 and TRIP have been used in the creation of an osteoblast gene expression profile assay. This assay utilizes cDNA primer pairs that can be used to amplify a number of osteoblast gene products with real-time PCR. In addition to GPC4 and TRIP the following are assayed; osteocalcin (a bone specific protein), alkaline phosphatase (an enzyme present in large amounts in osteoblasts, cbfa1 (a transcription factor that induces osteoblast differentiation), PTH receptor 1 (the receptor responsible for PTH action), PTH receptor 2 (a secondary receptor that may be responsible for PTHrP action).
The data are interpretted by analyzing an increase in PCR cycle number, i.e. the number of PCR cycles necessary to obtain product. The higher the cylce number the smaller amount of starting mRNA.

[4] = tested on: TRAP (GAL-4-BD-TRAP); assay: Mammalian two-hybrid assay TRAP / GPC4; assay type: cell-based, human; details: SaOS2 cells
Experimental: A mammalian two-hybrid assay was performed utilizing materials obtained from Clonetech (catalog #K1602-1). In this procedure we created two fusion proteins; a GAL4-BD-TRAP and a VP16-AD-GPC4. […] The TRAP sequence was obtained from Dr. James Bixley, University of Missouri, Columbia, Mo. GPC4 was obtained from a human osteoblast cDNA library from MG-63 cells.
GAL-4-BD-TRAP binds to the promoter of a luciferase reporter gene and the VP-16-AD-GPC4 activates RNA polymerase II activity. If the two target proteins interact with each other they will bring the binding domain protein into the vicinity of the activation domain and luciferase transcription will occur. The presence of luciferase activity in co-transfected cells is evidence for a physical association between the proteins.
In a control experiment, a second VP-16-AD protein was constructed using a GPC4 sequence deficient in the 12 amino acids identified from Clone 5 phage biopanning. This construct is termed VP-16-AD-GPC412. Deletion of the 12 amino acids from the GPC4 gene was accomplished with linker scanning mutagenesis
Pairs of plasmids were co-transfected into SaOS2 osteoblast-like cells using Lipofectamine®.

TRAP (GAL-4-BD-TRAP), sequence (P13686 22-325): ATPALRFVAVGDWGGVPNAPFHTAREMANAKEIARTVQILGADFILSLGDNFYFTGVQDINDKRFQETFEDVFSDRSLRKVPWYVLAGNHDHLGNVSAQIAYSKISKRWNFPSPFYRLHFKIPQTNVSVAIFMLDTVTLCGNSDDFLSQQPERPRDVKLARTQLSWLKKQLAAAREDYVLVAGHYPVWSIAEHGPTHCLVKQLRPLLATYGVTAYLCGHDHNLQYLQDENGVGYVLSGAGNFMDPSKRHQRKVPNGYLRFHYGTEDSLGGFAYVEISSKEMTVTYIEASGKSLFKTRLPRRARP

Molecule: SEQ. ID No. 6: phage clone insert DNA from TRAP bio-panning, encodes peptide SEQ. ID No. 24 (DNA CGGCCACGGAACACCAGTAGACGTCCCATGCGCAGA; expressed or natural sequence)
- Fre (consensus frequency among sequenced phage clones) [1]: 2/44

Molecule: SEQ. ID No. 7: phage clone insert DNA from TRAP bio-panning, encodes peptide SEQ. ID No. 25 (DNA ATAATGCGGAAACCGCGGAGCCGTAAAACCCATAGT; expressed or natural sequence)
- Fre (consensus frequency among sequenced phage clones) [1]: 5/44

Molecule: SEQ. ID No. 4: phage clone insert DNA from TRAP bio-panning, encodes peptide SEQ. ID No. 22 (DNA ACGCCGTCTCTTCCTCCGACTATGTTTCGGTTGACT; expressed or natural sequence)
- Fre (consensus frequency among sequenced phage clones) [1]: 4/44

Molecule: TPLSYLKGLVTV [Clone 5 peptide]
- blocked osteoblast binding ([2]; 50 nM oligopeptide, about 20% of wafer area pitted): approximately 66%
- interference with osteoblast binding to osteoclast lacunae (in words) ([2]; FIG. 13): interfere with this osteoblast binding in a dose dependent fashion
- lowest concentration with statistically significant inhibition of osteoblast binding ([2]; pitted bone wafers): 10 pM

Molecule: SEQ. ID No. 9: phage clone insert DNA from TRAP bio-panning, encodes peptide SEQ. ID No. 27 (DNA ACCAAGCCCCGAATCACGCGAATAAAGCGGCCAAGA; expressed or natural sequence)
- Fre (consensus frequency among sequenced phage clones) [1]: 2/44

Molecule: SEQ. ID No. 8: phage clone insert DNA from TRAP bio-panning, encodes peptide SEQ. ID No. 26 (DNA CGGCCAACGGAACACCAGTAGACGTCCCATGCGCAG; expressed or natural sequence)
- Fre (consensus frequency among sequenced phage clones) [1]: 2/44

Molecule: SEQ. ID No. 2: phage clone insert DNA from TRAP bio-panning, encodes peptide SEQ. ID No. 20 (DNA ACTATGGGTTTTACGGCTCCGCGGTTTCCGCATTAT; expressed or natural sequence)
- Fre (consensus frequency among sequenced phage clones) [1]: 6/44

Molecule: SEQ. ID No. 3: phage clone insert DNA from TRAP bio-panning, encodes peptide SEQ. ID No. 21 (DNA TCTCAGTGGCATCCGCGGTCTGCGTCGTATCCGATG; expressed or natural sequence)
- Fre (consensus frequency among sequenced phage clones) [1]: 4/44

Molecule: Lead
- effect on osteoblast gene products (in words) [3]: depresses all of the above gene products including GPC4 and TRIP
- Lead PCR cycle number, TRIP ([3]; control 21): 26
- Lead PCR cycle number, alkaline phosphatase ([3]; control 23): 27
- Lead PCR cycle number, osteocalcin ([3]; control 23): 26
- Lead PCR cycle number, cbfa1 ([3]; control 24): 28
- Lead PCR cycle number, PTH receptor 1 ([3]; control 28): 33
- Lead PCR cycle number, PTH receptor 2 ([3]; control 31): 32
- Lead PCR cycle number, GPC4 ([3]; higher cycle number = smaller amount of starting mRNA, control 19): 24

B1: VP-16-AD-GPC4: glypican 4 (GPC4) expressed as fusion protein with VP-16 activation domain (protein)
chain: ALLAAELKSKSCSEVRRLYVSKGFNKNDAPLHEINGDHLKICPQGSTCCSQEMEEKYSLQSKDDFKSVVSEQCNHLQAVFASRYKKFDEFFKELLENAEKSLNDMFVKTYGHLYMQNSELFKDLFVELKRYYVVGNVNLEEMLNDFWARLLERMFRLVNSQYHFTDEYLECVSKYTEQLKPFGDVPRKLKLQVTRAFVAARTFAQGLAVAGDVVSKVSVVNPTAQCTHALLKMIYCSHCRGLVTVKPCYNYCSNIMRGCLANQGDLDFEWNNFIDAMLMVAERLEGPFNIESVMDPIDVKISDAIMNMQDNSVQVSQKVFQGCGPPKPLPAGRISRSISESAFSARFRPHHPEERPTTAAGTSLDRLVTDVKEKLKQAKKFWSSLPSNVCNDERMAAGNGNEDDCWNGKGKSRYLFAVTGNGLANQGNNPEVQVDTSKPDILILRQIMALRVMTSKMKNAYNGNDVDFFDISDESSGEGSGSGCEYQQCPSEFDYNATDHAGKSANEKADS
modifications: left off: large carriers
- increase in luciferase activity on co-transfection with GAL-4-BD-TRAP [4]: 10-20 fold

B2: VP-16-AD-GPC412: VP-16-AD fusion of GPC4 deficient in the 12 amino acids identified from Clone 5 (protein)
chain: ALLAAELKSKSCSEVRRLYVSKGFNKNDAPLHEINGDHLKICPQGSTCCSQEMEEKYSLQSKDDFKSVVSEQCNHLQAVFASRYKKFDEFFKELLENAEKSLNDMFVKTYGHLYMQNSELFKDLFVELKRYYVVGNVNLEEMLNDFWARLLERMFRLVNSQYHFTDEYLECVSKYTEQLKPFGDVPRKLKLQVTRAFVAARTFAQGLAVAGDVVSKVSVVNPTAQCTHALLKMKPCYNYCSNIMRGCLANQGDLDFEWNNFIDAMLMVAERLEGPFNIESVMDPIDVKISDAIMNMQDNSVQVSQKVFQGCGPPKPLPAGRISRSISESAFSARFRPHHPEERPTTAAGTSLDRLVTDVKEKLKQAKKFWSSLPSNVCNDERMAAGNGNEDDCWNGKGKSRYLFAVTGNGLANQGNNPEVQVDTSKPDILILRQIMALRVMTSKMKNAYNGNDVDFFDISDESSGEGSGSGCEYQQCPSEFDYNATDHAGKSANEKADSAGVRPGAQAYLLTVFCILFLVMQREWR
modifications: left off: large carriers
- increase in luciferase activity on co-transfection with GAL-4-BD-TRAP [4]: showed no difference from control levels
